Assay results as given in patent US8124793B2, “Derivatives of ethylene methanedisulfonate as cancer chemotherapeutic agents” (priority 2007, dated 2012).

Legend:
Format in all cases: cell-based
CCRF-CEM = experiment: NCI screen, growth of human tumor cells: Leukemia CCRF-CEM; details: CCRF-CEM (Leukemia), 10^−4 molar
Method in brief: (§1)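 Growth of human tumor cells, expressed as percent, was determined in the NCI screen. Test data list the cancer type and the molar concentration applied.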

K562 = experiment: NCI screen, growth of human tumor cells: Leukemia K562; details: K562 (Leukemia), 10^−4 molar
Method in brief: as §1

MOLT-4 = experiment: NCI screen, growth of human tumor cells: Leukemia MOLT-4; details: MOLT-4 (Leukemia), 10^−4 molar
Method in brief: as §1

RPMI-8226 = experiment: NCI screen, growth of human tumor cells: Leukemia RPMI-8226; details: RPMI-8226 (Leukemia), 10^−4 molar
Method in brief: as §1

SR = experiment: NCI screen, growth of human tumor cells: Leukemia SR; details: SR (Leukemia), 10^−4 molar
Method in brief: as §1

HOP-62 = experiment: NCI screen, growth of human tumor cells: Non-Small Cell Lung HOP-62; details: HOP-62 (Non-Small Cell Lung), 10^−4 molar
Method in brief: as §1

HOP-18 = experiment: NCI screen, growth of human tumor cells: Non-Small Cell Lung HOP-18
Method in brief: as §1

HOP-92 = experiment: NCI screen, growth of human tumor cells: Non-Small Cell Lung HOP-92
Method in brief: as §1

NCI-H460 = experiment: NCI screen, growth of human tumor cells: Non-Small Cell Lung NCI-H460; details: NCI-H460 (Non-Small Cell Lung), 10^−4 molar
Method in brief: as §1

NCI-H23 = experiment: NCI screen, growth of human tumor cells: Non-Small Cell Lung NCI-H23; details: NCI-H23 (Non-Small Cell Lung), 10^−4 molar
Method in brief: as §1

HCT-116 = experiment: NCI screen, growth of human tumor cells: Colon Cancer HCT-116; details: HCT-116 (Colon Cancer), 10^−4 molar
Method in brief: as §1

HCT-15 = experiment: NCI screen, growth of human tumor cells: Colon Cancer HCT-15; details: HCT-15 (Colon Cancer), 10^−4 molar
Method in brief: as §1

SF-295 = experiment: NCI screen, growth of human tumor cells: CNS Cancer SF-295; details: SF-295 (CNS Cancer), 10^−4 molar
Method in brief: as §1

U-251 = experiment: NCI screen, growth of human tumor cells: CNS Cancer U-251; details: U-251 (CNS Cancer), 10^−4 molar
Method in brief: as §1

LOXIMVI = experiment: NCI screen, growth of human tumor cells: Melanoma LOXIMVI; details: LOXIMVI (Melanoma), 10^−4 molar
Method in brief: as §1

M14 = experiment: NCI screen, growth of human tumor cells: Melanoma M14; details: M14 (Melanoma), 10^−4 molar
Method in brief: as §1

SK-MEL-5 = experiment: NCI screen, growth of human tumor cells: Melanoma SK-MEL-5; details: SK-MEL-5 (Melanoma), 10^−4 molar
Method in brief: as §1

UACC-257 = experiment: NCI screen, growth of human tumor cells: Melanoma UACC-257; details: UACC-257 (Melanoma), 10^−4 molar
Method in brief: as §1

OVCAR-8 = experiment: NCI screen, growth of human tumor cells: Ovarian Cancer OVCAR-8; details: OVCAR-8 (Ovarian Cancer), 10^−4 molar
Method in brief: as §1

786-0 = experiment: NCI screen, growth of human tumor cells: Renal Cancer 786-0; details: 786-0 (Renal Cancer), 10^−4 molar
Method in brief: as §1

SN12C = experiment: NCI screen, growth of human tumor cells: Renal Cancer SN12C; details: SN12C (Renal Cancer), 10^−4 molar
Method in brief: as §1

CAKI-1 = experiment: NCI screen, growth of human tumor cells: Renal Cancer CAKI-1; details: CAKI-1 (Renal Cancer), 10^−4 molar
Method in brief: as §1

MCF 7 = experiment: NCI screen, growth of human tumor cells: Breast Cancer MCF 7; details: MCF 7 (Breast Cancer), 10^−4 molar
Method in brief: as §1

MCF7/ADR-RES = experiment: NCI screen, growth of human tumor cells: Breast Cancer MCF7/ADR-RES; details: MCF7/ADR-RES (Breast Cancer), 10^−4 molar
Method in brief: as §1

MDA-MB-231/ATCC = experiment: NCI screen, growth of human tumor cells: Breast Cancer MDA-MB-231/ATCC; details: MDA-MB-231/ATCC (Breast Cancer), 10^−4 molar
Method in brief: as §1

MDA-MB-435 = experiment: NCI screen, growth of human tumor cells: Breast Cancer MDA-MB-435; details: MDA-MB-435 (Breast Cancer), 10^−4 molar
Method in brief: as §1

MDA-N = experiment: NCI screen, growth of human tumor cells: Breast Cancer MDA-N; details: 10^−4 molar
Experimental: (§2) In the NCI screening process, each compound was tested and described by a minimum of 60 data points. The test data include, but are not limited to the type of cancer, the molar concentration used in the screen, and the percent growth of the cancer. In some cases, NMR and elemental analysis were used for structural assignment.

human cancer cells = experiment: NCI screen summary over the cancers tested (negative growth of human cancer cells); details: 10^−4 M conc.; cancers with negative growth / cancers tested
Experimental: as §2
The derivatives in the tables are grouped using the same category as in the tables 1-6.

RL = experiment: NCI screen, growth of human tumor cells: Lymphoma RL
KD488 = experiment: NCI screen, growth of human tumor cells: Lymphoma KD488
AS283 = experiment: NCI screen, growth of human tumor cells: Lymphoma AS283
SU-DAL-7 = experiment: NCI screen, growth of human tumor cells: Lymphoma SU-DAL-7
PA682 = experiment: NCI screen, growth of human tumor cells: Lymphoma PA682

## O=S1(=O)OCCOS(=O)(=O)C1Cc1nc2ccccc2[nH]1 [NSC 679042, ethylene 2-benzimidazolyl-1,1-ethanedisulfonate]
CCRF-CEM
  percent of growth of human tumor cells: 15%
K562
  percent of growth of human tumor cells: 14%
MOLT-4
  percent of growth of human tumor cells: −3%
RPMI-8226
  percent of growth of human tumor cells: −42%
SR
  percent of growth of human tumor cells: 12%
HOP-62
  percent of growth of human tumor cells: 9%
HOP-18; HOP-18, 10^−4 molar
  % Growth: 18%
HOP-18; HOP-18, 10^−5 molar
  % Growth: 41%
HOP-18; HOP-18, 10^−6 molar
  % Growth: 29%
HOP-18; HOP-18, 10^−7 molar
  % Growth: 51%
HOP-18; HOP-18, 10^−8 molar
  % Growth: 58%
HOP-92; HOP-92, 10^−4 molar
  % Growth: 18%
HOP-92; HOP-92, 10^−5 molar
  % Growth: 41%
HOP-92; HOP-92, 10^−6 molar
  % Growth: 29%
HOP-92; HOP-92, 10^−7 molar
  % Growth: 51%
HOP-92; HOP-92, 10^−8 molar
  % Growth: 56%
NCI-H460
  percent of growth of human tumor cells: 14%
NCI-H23
  percent of growth of human tumor cells: 16%
HCT-116
  percent of growth of human tumor cells: −31%
HCT-15
  percent of growth of human tumor cells: 4%
SF-295
  percent of growth of human tumor cells: 0%
U-251
  percent of growth of human tumor cells: 21%
LOXIMVI
  percent of growth of human tumor cells: −50%
M14
  percent of growth of human tumor cells: 23%
SK-MEL-5
  percent of growth of human tumor cells: −28%
UACC-257
  percent of growth of human tumor cells: 12%
OVCAR-8
  percent of growth of human tumor cells: −33%
786-0
  percent of growth of human tumor cells: 22%
SN12C
  percent of growth of human tumor cells: 8%
CAKI-1
  percent of growth of human tumor cells: −2%
MCF 7
  percent of growth of human tumor cells: 6%
MCF7/ADR-RES
  percent of growth of human tumor cells: 15%
MDA-MB-231/ATCC
  percent of growth of human tumor cells: 30%
MDA-MB-435
  percent of growth of human tumor cells: 23%
MDA-N
  percent of growth of human tumor cells: 3%
Human cancer cells
  Percentage of cancers showing negative growth cancers tested: 10^−4 M conc. = 12/32 = 38%
RL; 10^−4 molar
  % Growth: −45%
RL; 10^−5 molar
  % Growth: 41%
KD488; KD488, 10^−4 molar
  % Growth: −39%
KD488; KD488, 10^−5 molar
  % Growth: 39%
AS283; AS283, 10^−4 molar
  % Growth: −25%
AS283; AS283, 10^−5 molar
  % Growth: 15%
AS283; AS283, 10^−6 molar
  % Growth: 58%
AS283; AS283, 10^−7 molar
  % Growth: 54%
SU-DAL-7; SU-DAL-7, 10^−4 molar
  % Growth: −42%
SU-DAL-7; SU-DAL-7, 10^−5 molar
  % Growth: 29%
SU-DAL-7; SU-DAL-7, 10^−6 molar
  % Growth: 57%
PA682; PA682, 10^−4 molar
  % Growth: −34%
PA682; PA682, 10^−5 molar
  % Growth: 18%
